Experimental findings from patent US20120308554A1, “VEGF-D/VEGFR2/3-MEDIATED REGULATION OF DENDRITES” (UNIVERSITAT HEIDELBERG, priority 2011, published 2012) are described below.

What all share (format): cell-based, mice
One series concerns VEGFD. Nature of the series: qRT-PCR analysis of VEGFD expression in hippocampal neurons. The procedure: Total RNA was isolated at DIV10 to DIV13 from hippocampal primary neuron cultures or isolated brain tissues with Rneasy Mini Kit (Qiagen, Hilden, Germany) including an optional Dnase I treatment at room temperature for 15 min according to manufacturer's instructions (Qiagen). 1.2 μg of extracted RNA was reverse transcribed into first strand cDNA using High Capacity cDNA Reverse Transcription kit (Applied Biosystems, Foster City, Calif.).
Quantitative reverse transcriptase PCR (qRT-PCR) was done on an ABI7300 thermal cycler using Universal qRT-PCR master mix with TaqMan Gene Expression Assays for the indicated genes (Applied Biosystems). The following TaqMan Gene Expression Assays were used in this study: Gusb (Mm00446953_m1), cFos (Mm00487425_m1), VEGFD (Mm00438965_m1), VEGFC (Mm01202432_m1), VEGF (Mm01281449_m1), VEGFR3 (Mm01292618_m1), beta-actin (Mm00607939_s1), beta-2 microglobulin (Mm00437762_m1), CBP (Mm01342435_m1), p38 MAPK alpha (Mm00442497_m1), p38 MAPK beta (Mm00440955_m1). Expression of target genes was normalized against the expression of Gusb as endogenous control gene. Data were derived from at least 5 independent experiments.
A general note: In qPCR the cycle at which signal appears reflects the starting amount.

Another series deals with hippocampal neurons. The series can be described thus: Morphometric analyses (total dendritic length, Sholl analysis, spine density) of cultured hippocampal neurons. The conditions noted are these: for total dendritic length and dendritic complexity (Sholl analysis): neurons expressing the construct versus control constructs; for rescue of reduction in dendrite length and complexity caused by CaMBP4 or CaMKIVK75E: recombinant factors 100 ng/ml for 3 days, or VEGFD-HA expression. The procedure:
Hippocampal neurons from newborn C57BL/6 mice were cultured as known in the art. Experiments were done after a culturing period of 10 to 14 days in vitro (DIV). DNA transfection was done on DIV8 using Lipofectamine 2000 (Invitrogen, San Diego, Calif.). For the studies on dendrite morphology, neurons were analyzed 4-5 days after transfection.
For 3D Sholl Analysis, total dendritic length and spine morphology were calculated using Object-Image freeware software with a specific set of macros (written by Dr. E. Ruthazer, McGill University, Quebec). Briefly, a z-Stack acquisition was imported, calibrated in Object-Image and manually traced. Total dendritic length was then computed. For Sholl analysis, the shell interval was set at 5 μm. All analyses were performed blind. In all in vitro experiments, for each condition, a minimum of 12 neurons from three independent preparations was analyzed. For the Golgi staining quantifications of 20 neurons for each condition from 4 different injected animals per viral construct were traced and analyzed.
Hippocampal neurons were fixed with 4% paraformaldehyde at room temperature for 20 min. For immunostaining, primary and secondary antibodies were applied in GDB buffer (30 mM phosphate buffer [pH7.4] containing 0.2% gelatin, 0.5% Triton X-100, and 0.9 M NaCl). For the morphometric analyses, fluorescence images were acquired using a confocal laser-scanning microscope TCS SP2 (Leica, Mannheim, Germany) equipped with an inverted fluorescence microscope DM IRE2 (Leica) and Leica confocal scan software. All images were obtained with sequential acquisition setting at a resolution of 1024×1024 pixels. Each image was a z series projection of images taken at 1 μm intervals.

Series [1] relates to VEGFD, VEGF, VEGFC and VEGFR3. Nature of the series: qRT-PCR analysis of shRNA knock-down of VEGF family members. To be noted: hippocampal neurons infected with rAAV. The procedure: Total RNA was isolated at DIV10 to DIV13 from hippocampal primary neuron cultures or isolated brain tissues with Rneasy Mini Kit (Qiagen, Hilden, Germany) including an optional Dnase I treatment at room temperature for 15 min according to manufacturer's instructions (Qiagen). 1.2 μg of extracted RNA was reverse transcribed into first strand cDNA using High Capacity cDNA Reverse Transcription kit (Applied Biosystems, Foster City, Calif.). Quantitative reverse transcriptase PCR (qRT-PCR) was done on an ABI7300 thermal cycler using Universal qRT-PCR master mix with TaqMan Gene Expression Assays for the indicated genes (Applied Biosystems). The following TaqMan Gene Expression Assays were used in this study: Gusb (Mm00446953_m1), cFos (Mm00487425_m1), VEGFD (Mm00438965_m1), VEGFC (Mm01202432_m1), VEGF (Mm01281449_m1), VEGFR3 (Mm01292618_m1), beta-actin (Mm00607939_s1), beta-2 microglobulin (Mm00437762_m1), CBP (Mm01342435_m1), p38 MAPK alpha (Mm00442497_m1), p38 MAPK beta (Mm00440955_m1). Expression of target genes was normalized against the expression of Gusb as endogenous control gene. Data were derived from at least 5 independent experiments. For expression of shRNAs, an rAAV vector containing the U6 promoter for shRNA expression and a CaMKII promoter driving mCherry expression was used. Three different sequences were obtained from Open Biosystems ([…] 2 and […] 3), cloned and tested for silencing efficiency. […] As control, a scramble version of this sequence ([…] ID NO: 2) and the vector carrying only the mCherry ([…]) were used. Shp38alpha [NT] ID NO: 3), shp38beta [NT] ID NO: 4), […] ID NO: 5), […] ID NO: 6) and […] ID NO: 7; sequence obtained from Open Biosystems www.openbiosystems.com) were also cloned into the same vector. CBP expression level was knocked down using a pool of four short interfering RNAs (siRNAs) targeting mouse CBP (Accell siRNA SMARTpool; Thermo Scientific Dharmacon). The SMARTpool is a group of four siRNAs that have been screened to reduce a variety of potential off-target effects including the inclusion of miRNA (microRNA)-like seed motifs. Silencing of GAPDH was measured using Accell mouse GAPDH as a positive control, and as a negative control, a non-targeting Accell mouse siRNA pool was used. In addition, a fluorescently labeled non-targeting Accell mouse siRNA was also used to evaluate penetration efficiency in hippocampal neurons via immunocytochemistry. Briefly, 500 nM siRNAs were supplemented in the serum-free culturing medium at DIV8, and mRNA levels were analyzed at DIV13.

The subject of series [2] is cultured hippocampal neurons. Nature of the series: Whole-cell patch clamp recordings of cultured hippocampal neurons. The text has this: Whole-cell patch clamp recordings were made at room temperature from cultured hippocampal neurons plated on coverslips secured with a platinum ring in a recording chamber (Open access chamber-1, Science Products GmbH, Hofheim, Germany) mounted on a fixed-stage upright microscope (BX51WI, Olympus, Hamburg, Germany). Differential interference contrast optics, infrared illumination and a CCD camera (PCO, Visitron Systems, Puchheim, Germany) connected to a contrast enhancement unit (Argus, Hamamatsu, Herrsching am Ammersee, Germany) were used to view neurons on a video monitor. Recordings were made with a Multiclamp 700A amplifier, digitized through a Digidata 1322A A/D converter and acquired using pClamp software (Molecular Devices, CA, USA). All membrane potentials have been corrected for the calculated junction potential of −11 mV (JPCalc program by Dr. Peter H. Barry). mEPSCs and whole-cell AMPA (10 μM, 6 ml/min, Biotrend) responses were recorded as known in the art except for the solutions and that a holding potential of −71 mV was used and both TTX (1 μM, Biotrend, Cologne, Germany) and gabazine (5 μM, Biotrend) were included in the ACSF. TTX was applied before gabazine to prevent the induction of action potential bursting. Access (range: 7-18 MU) and membrane resistance (see Table 1) were monitored before and after mEPSC recordings and data was rejected if changes greater than 20% occurred.
Patch electrodes (3-4 MU) were made from borosilicate glass (1.5 mm, WPI, Sarasota, Fla., USA) and filled with intracellular solution (containing in mM: KCH3SO4, 145; NaCl, 8; HEPES, 10; K2-phosphocreatine, 10; Mgt-ATP, 4; Na3-GTP, 0.3; pH 7.35 with KOH). The extracellular solution was an artificial cerebrospinal fluid (ACSF, in mM: NaCl, 125; KCl, 3.5; MgCl2, 1.3; NaH2PO4, 1.2; CaCl2, 2.4; glucose, 25; NaHCO3, 26; gassed with 95% O2 and 5% CO2).

Like-named read-outs stand apart in the source and are kept apart here.

On to `C[C@]12N[C@H](Cc3ccccc31)c1ccccc12` [MK801, reference compound], for which the “VEGFD expression (qRT-PCR)” value with VEGFD is reported as “significantly reduced the expression of VEGFD mRNA”.

As to “shVEGFR3: shRNA specific for VEGFR3 (CCCAGTATTGTGTGGTACAAA; SEQ ID NO: 7)”, the “total dendritic length and dendritic complexity (Sholl analysis)” value in the series with hippocampal neurons was “changes in the dendritic structure that were virtually identical to those obtained in hippocampal neurons transfected with pAAV-shVEGFD”. For the same molecule, the “mRNA levels of respective targets” value in series [1] was “reduced mRNA levels of their respective targets”.

As to “shp38α: shRNA specific for the alpha isoform of p38 MAPK (AAACACGAAAATGTGATTGGT; SEQ ID NO: 3) [reference compound]”, the “effect on rVEGFD-induced rescue of dendrite length and complexity” value in the series with hippocampal neurons (neurons expressing CaMBP4 (and CaMKIVK75E), rVEGFD 3 days) is “prevented the rVEGFD-induced rescue”.

With “shVEGF: shRNA specific for VEGF (ACCTCACCAAAGCCAGCAC; SEQ ID NO: 5) [reference compound]”, the “total dendritic length and dendritic complexity (Sholl analysis)” value in the series on hippocampal neurons was “had no effect on dendrite length or complexity”. For the same molecule, the “mRNA levels of respective targets” value in series [1] was “reduced mRNA levels of their respective targets”.

For the molecule “shSCR: scramble version of the shVEGFD sequence (GTGCCAAGACGGGTAGTCA; SEQ ID NO: 2), control [reference compound]”, in series [2] (infected neurons), the “AP induc thresh (current injection required to induce an action potential)” value is reported as 116 ± 10 pA, the “AP thresh (membrane potential at which action potentials initiate)” value is −48.4 ± 1.0 mV, the “Cm (membrane capacitance)” value is 102.4 ± 4.4 pF and the “Rm (membrane resistance)” value amounted to 275 ± 15 MΩ. In addition, in series [2] (infected neurons), the “Vrest (resting membrane potential)” value is recorded as −78.7 ± 1.7 mV, the “mEPSC τ decay” value worked out at 5.70 ± 0.12 ms and the “mEPSC τ rise” value was 3.36 ± 0.07 ms. Further, in series [2] (transfected neurons), the “AP induc thresh (current injection required to induce an action potential)” value came to 125 ± 13 pA, the “AP thresh (membrane potential at which action potentials initiate)” value was −44.1 ± 1.6 mV, the “Cm (membrane capacitance)” value is given as 88.6 ± 5.5 pF and the “Rm (membrane resistance)” value was found to be 291 ± 32 MΩ. For the same molecule, in series [2] (transfected neurons), the “Vrest (resting membrane potential)” value is given as −76.5 ± 2.3 mV, the “mEPSC τ decay” value came to 6.06 ± 0.07 ms and the “mEPSC τ rise” value was 3.18 ± 0.14 ms. Besides, the “spine density (number of spines/20 μm)” value in the series with hippocampal neurons (transfected hippocampal neurons) was 6.17±0.56 spines/20 μm.

For the molecule `C[S+]([O-])c1ccc(-c2nc(-c3ccncc3)c(-c3ccc(F)cc3)[nH]2)cc1` (stereo not drawn) [SB203580, reference compound], in the series on hippocampal neurons, the “Sholl analysis, SB203580 alone” value is “showed no difference compared to the respective untreated controls”; the “effect on rVEGFD-induced rescue of dendrite length and complexity” value is “severely compromised the ability of rVEGFD to rescue the impairment of dendrite length and complexity”.

For the molecule “shVEGFC: shRNA specific for VEGFC (GTTCATTCCATTATTAGAC; SEQ ID NO: 6) [reference compound]”, the “total dendritic length and dendritic complexity (Sholl analysis)” value with hippocampal neurons is on record as “had no effect on dendrite length or complexity”. In series [1], the “mRNA levels of respective targets” value is recorded as “reduced mRNA levels of their respective targets”.

B1: VEGFD-HA: HA-tagged VEGFD expressed from rAAV plasmid or rAAV (protein, UniProt P97946 94-210, looked up)
Vascular endothelial growth …: FAATFYDTETLKVIDEEWQRTQCSPRETCVEVASELGKTTNTFFKPPCVNVFRCGGCCNEEGVMCMNTSTSYISKQLFEISVPLTSVPELVPVKIANHTGCKCLPTGPRHPYSIIRR
modifications: HA tag
B1: the neuronal morphology result in the series with hippocampal neurons (neurons without nuclear calcium signaling blockade) was “no detectable effect on neuronal morphology”. Also, the “restoration of spine density in CaMBP4 or CaMKIVK75E expressing neurons” value with hippocampal neurons (rVEGFD 100 ng/ml 3 days or VEGFD-HA expression) is listed as “failed to restore normal spine density”. Also, the “rescue of reduction in dendrite length and complexity caused by CaMBP4 or CaMKIVK75E” value in the series on hippocampal neurons was “rescued the reduction in dendrite length and complexity”.

B2: resiVEGFD-HA: HA-tagged VEGFD resistant to shVEGFD, expressed from plasmid (protein, UniProt P97946 94-210, looked up)
Vascular endothelial growth …: B1 Vascular endothelial growth …
modifications: HA tag; shRNA-resistant coding sequence
notes: HA-tagged VEGFD resistant to shVEGFD, expressed from plasmid
For B2, the “effect on reduction of dendrite length and complexity caused by shVEGFD” value in the series with hippocampal neurons (pAAV-shVEGFD transfected neurons, rVEGFD 100 ng/ml 3 days or co-transfection) is “rescued the reduction of dendrite length and complexity”.

B3: rVEGFC: recombinant mouse VEGFC (Biocat) (protein, UniProt P97953 108-223, looked up)
Vascular endothelial growth …: AHYNTEILKSIDNEWRKTQCMPREVCIDVGKEFGAATNTFFKPPCVSVYRCGGCCNSEGLQCMNTSTGYLSKTLFEITVPLSQGPKPVTISFANHTSCRCMSKLDVYRQVHSIIRR
In the case of B3, the “rescue of reduction in dendrite length and complexity caused by CaMBP4 or CaMKIVK75E” value with hippocampal neurons is “neither recombinant VEGF (rVEGF) nor recombinant VEGFC (rVEGFC) was able to rescue”.
